As a reminder, the kinetic solubility is solubility judged after dilution from a stock solution rather than from solid.

In data set [1] the test system is Escherichia coli. As to the kind of experiment: Antibacterial activity against wild type Escherichia coli BW25113 assessed as inhibition of bacterial growth measured after 18 to 20 hrs by broth microdilution method. Type of data set: functional. The settings on record: time 18-20 hrs. (In broth dilution the organism is exposed to a series of concentrations in liquid medium.)

The test system of data set [2] is Staphylococcus aureus. As to the kind of experiment: Antibacterial activity against methicillin-resistant Staphylococcus aureus USA300 NRS384 assessed as inhibition of bacterial growth measured after 18 to 20 hrs by broth microdilution method. In kind it is functional. Conditions: time 18-20 hrs.
The subject of data set [3] is Escherichia coli. As to the kind of experiment: Antibacterial activity against Escherichia coli JW55031 harboring toIC efflux mutant assessed as inhibition of bacterial growth measured after 18 to 20 hrs by broth microdilution method. Type of data set: functional. The settings on record: time 18-20 hrs.
The subject of data set [4] is Staphylococcus aureus. The data set can be described thus: Ratio of MIC for methicillin-resistant Staphylococcus aureus USA400 NRS123 measured after 14th passage to MIC for methicillin-resistant Staphylococcus aureus USA400 NRS123 measured after 18 to 20 hrs by broth microdilution assay. Type of data set: functional.
Data set [5] concerns Staphylococcus epidermidis. The data set can be described thus: Antibacterial activity against methicillin-resistant Staphylococcus epidermidis NRS101 assessed as inhibition of bacterial growth measured after 18 to 20 hrs by CLSI protocol based broth microdilution method. The settings on record: time 18-20 hrs. In kind it is functional.
Another data set deals with Listeria monocytogenes. The data set can be described thus: Antibacterial activity against Listeria monocytogenes ATCC 19111 assessed as inhibition of bacterial growth measured after 18 to 20 hrs by CLSI protocol based broth microdilution method. Type of data set: functional. The settings on record: time 18-20 hrs.
Data set [6] has as its system Staphylococcus aureus. The data set can be described thus: microbe, parasite or virus in culture. Conditions: ATCC 6538.
Data set [7] concerns Streptococcus pneumoniae. As to the kind of experiment: Antibacterial activity against cephalosporin-resistant Streptococcus pneumoniae ATCC 51916 assessed as inhibition of bacterial growth measured after 18 to 20 hrs by CLSI protocol based broth microdilution method. In kind it is functional. The settings on record: time 18-20 hrs.
Data set [8] concerns Staphylococcus aureus. The data set can be described thus: microbe, parasite or virus in culture. Conditions: USA700 NRS386.
For data set [9], the system named is Staphylococcus aureus. As to the kind of experiment: Antibacterial activity against vancomycin-resistant Staphylococcus aureus 10 assessed as inhibition of bacterial growth measured after 18 to 20 hrs by CLSI protocol based broth microdilution method. In kind it is functional. Conditions: time 18-20 hrs.
For a further data set, the system named is Enterococcus faecalis. As to the kind of experiment: microbe, parasite or virus in culture. Conditions: ATCC 51299.
Data set [10] concerns Staphylococcus aureus. The data set can be described thus: microbe, parasite or virus in culture. The settings on record: USA400 NRS123.
The next data set concerns Enterococcus faecium. The data set can be described thus: Antibacterial activity against vancomycin-resistant Enterococcus faecium ATCC 700221 assessed as inhibition of bacterial growth measured after 18 to 20 hrs by CLSI protocol based broth microdilution method. The settings on record: time 18-20 hrs. In kind it is functional.
Data set [11] relates to Staphylococcus aureus. As to the kind of experiment: microbe, parasite or virus in culture. Conditions: USA500 NRS385.
Data set [12] deals with Streptococcus pneumoniae. The data set can be described thus: Antibacterial activity against methicillin-resistant Streptococcus pneumoniae ATCC 700677 assessed as inhibition of bacterial growth measured after 18 to 20 hrs by CLSI protocol based broth microdilution method. Type of data set: functional. Conditions: time 18-20 hrs.
In data set [13] the test system is Staphylococcus aureus. The data set can be described thus: Antibacterial activity against vancomycin-resistant Staphylococcus aureus 12 assessed as inhibition of bacterial growth measured after 18 to 20 hrs by CLSI protocol based broth microdilution method. In kind it is functional. The settings on record: time 18-20 hrs.
In data set [14] the test system is Staphylococcus aureus. The data set can be described thus: microbe, parasite or virus in culture. Conditions: NRS107.
Data set [15] deals with Staphylococcus aureus. The data set can be described thus: microbe, parasite or virus in culture. Conditions: NRS119.
In data set [16] the test system is Staphylococcus aureus. As to the kind of experiment: Bactericidal activity against methicillin-resistant Staphylococcus aureus USA400 NRS123 assessed as post-antibiotic effect at 5 times MIC incubated for 2 hrs followed by compound wash-out by viable plate count method. In kind it is functional.
The next data set is described as follows: physchem. The settings on record: phosphate-buffered saline, pH 7.4.

Converted amounts (≈) assume the structure as drawn. Where only a bound is given, the exact number is not on record here.

Regarding `COc1ccc(-c2csc(Nc3ccc(/C(C)=N/NC(N)=S)cc3)n2)cc1`, the MIC with Escherichia coli [1], in the data set on Staphylococcus aureus [2] and in the data set on Escherichia coli [3] was over 64 µg/mL in each case.

Consider `C/C(=N\NC(=N)N)c1ccc(Nc2nc(-c3ccc(Br)cc3)cs2)cc1`, for which the figures for the MIC with Escherichia coli [1], in the data set on Staphylococcus aureus [2] and with Escherichia coli [3] were 4 µg/mL (≈ 9.32 µM), 16 µg/mL (≈ 37.3 µM) and 2 µg/mL (≈ 4.66 µM), respectively.

As for `C/C(=N\NC(N)=O)c1ccc(Nc2nc(-c3ccc(Cl)cc3)cs2)cc1`, the MIC in the data set on Escherichia coli [1], in the data set on Staphylococcus aureus [2] and in the data set with Escherichia coli [3] was over 64 µg/mL each time.

On to `COc1ccc(-c2csc(Nc3ccc(C(C)=O)cc3)n2)cc1`, for which the MIC in the data set on Escherichia coli [1], with Staphylococcus aureus [2] and in the data set with Escherichia coli [3] was over 64 µg/mL throughout.

As to `C/C(=N\NC(N)=S)c1ccc(Nc2nc(-c3ccccc3)cs2)cc1`, the MIC in the data set with Escherichia coli [1], with Staphylococcus aureus [2] and with Escherichia coli [3] was over 64 µg/mL in each case.

As to `O=C(O)c1cn(C2CC2)c2cc(N3CCNCC3)c(F)cc2c1=O` [CIPROFLOXACIN], the Ratio in the data set on Staphylococcus aureus [4] came out at 127.

As to `CC(=O)NC[C@H]1CN(c2ccc(N3CCOCC3)c(F)c2)C(=O)O1` [LINEZOLID], the MBC was 16 µg/mL (≈ 47.4 µM) in data set [5]; 16 µg/mL (≈ 47.4 µM) in the data set with Listeria monocytogenes; 16 µg/mL (≈ 47.4 µM) in the data set on Staphylococcus aureus [6]; 32 µg/mL (≈ 94.9 µM) in the data set on Streptococcus pneumoniae [7]; 64 µg/mL (≈ 190 µM) against Staphylococcus aureus [8]; over 64 µg/mL in the data set on Staphylococcus aureus [9]. Besides, the MBC against Enterococcus faecalis is 16 µg/mL (≈ 47.4 µM); in the data set on Staphylococcus aureus [10], 32 µg/mL (≈ 94.9 µM); with Enterococcus faecium, 16 µg/mL (≈ 47.4 µM); in the data set on Staphylococcus aureus [11], 32 µg/mL (≈ 94.9 µM); in the data set on Streptococcus pneumoniae [12], 16 µg/mL (≈ 47.4 µM); with Staphylococcus aureus [13] it was 64 µg/mL (≈ 190 µM). In addition, the MBC against Staphylococcus aureus [14] is 64 µg/mL (≈ 190 µM); against Staphylococcus aureus [15], over 64 µg/mL. For the same compound, the MIC in [5] was 1 µg/mL (≈ 2.96 µM); in the data set on Listeria monocytogenes it was at most 0.5 µg/mL; in the data set on Staphylococcus aureus [6], 1 µg/mL (≈ 2.96 µM); with Staphylococcus aureus [9], 1 µg/mL (≈ 2.96 µM); against Staphylococcus aureus [10] it was 1 µg/mL (≈ 2.96 µM); with Enterococcus faecium, 1 µg/mL (≈ 2.96 µM). Further, the MIC in the data set on Staphylococcus aureus [11] is 1 µg/mL (≈ 2.96 µM); with Staphylococcus aureus [13] it was 1 µg/mL (≈ 2.96 µM); against Staphylococcus aureus [14], 1 µg/mL (≈ 2.96 µM); in the data set on Staphylococcus aureus [15], 64 µg/mL (≈ 190 µM).

Consider `C/C(=N\NC(N)=O)c1ccc(Nc2nc(-c3ccc(C)cc3)cs2)cc1`, for which the MIC in the data set on Escherichia coli [1] is over 64 µg/mL; with Staphylococcus aureus [2], 32 µg/mL (≈ 87.6 µM); in the data set on Escherichia coli [3] it was 32 µg/mL (≈ 87.6 µM).

For `C/C(=N\NC(N)=S)c1ccc(Nc2nc(-c3ccc(Cl)cc3)cs2)cc1`, the MIC was over 64 µg/mL in the data set on Escherichia coli [1], 32 µg/mL (≈ 79.6 µM) in the data set on Staphylococcus aureus [2] and 64 µg/mL (≈ 159 µM) in the data set with Escherichia coli [3].

Turning to `C/C(=N\NC(N)=O)c1ccc(Nc2nc(-c3ccc(Br)cc3)cs2)cc1`, the MIC in the data set on Escherichia coli [1], in the data set on Staphylococcus aureus [2] and in the data set with Escherichia coli [3] was over 64 µg/mL throughout.

As for `COc1ccc(-c2csc(Nc3ccc(/C(C)=N/NC(=N)N)cc3)n2)cc1`, the MIC with Escherichia coli [1] is 4 µg/mL (≈ 10.5 µM); in the data set on Staphylococcus aureus [2] it was 32 µg/mL (≈ 84.1 µM); in the data set with Escherichia coli [3], 2 µg/mL (≈ 5.26 µM).

With `CC(=O)c1ccc(Nc2nc(-c3ccc(Br)cc3)cs2)cc1`, the MIC with Escherichia coli [1], in the data set with Staphylococcus aureus [2] and in the data set with Escherichia coli [3] was over 64 µg/mL each time.

Regarding `CC(=O)c1ccc(Nc2nc(-c3ccc(C)cc3)cs2)cc1`, the MIC with Escherichia coli [1] was over 64 µg/mL; in the data set on Staphylococcus aureus [2], over 64 µg/mL; with Escherichia coli [3], 64 µg/mL (≈ 208 µM).

Turning to `CN[C@H](CC(C)C)C(=O)N[C@H]1C(=O)N[C@@H](CC(N)=O)C(=O)N[C@H]2C(=O)N[C@H]3C(=O)N[C@H](C(=O)N[C@H](C(=O)O)c4cc(O)cc(O)c4-c4cc3ccc4O)[C@H](O)c3ccc(c(Cl)c3)Oc3cc2cc(c3O[C@@H]2O[C@H](CO)[C@@H](O)[C@H](O)[C@H]2O[C@H]2C[C@](C)(N)[C@H](O)[C@H](C)O2)Oc2ccc(cc2Cl)[C@H]1O` [VANCOMYCIN], the MBC in data set [5] is 2 µg/mL (≈ 1.38 µM); against Staphylococcus aureus [6] it was 2 µg/mL (≈ 1.38 µM); in the data set on Staphylococcus aureus [8], 1 µg/mL (≈ 0.69 µM); in the data set with Staphylococcus aureus [9], over 64 µg/mL; in the data set on Enterococcus faecalis, 64 µg/mL (≈ 44.2 µM); with Staphylococcus aureus [10], 1 µg/mL (≈ 0.69 µM). Also, the MBC with Enterococcus faecium was over 64 µg/mL; in the data set with Staphylococcus aureus [11] it was 1 µg/mL (≈ 0.69 µM); in the data set on Staphylococcus aureus [13] it was 64 µg/mL (≈ 44.2 µM); in the data set with Staphylococcus aureus [14], 2 µg/mL (≈ 1.38 µM); against Staphylococcus aureus [15], 2 µg/mL (≈ 1.38 µM). In addition, the MIC in the data set with Listeria monocytogenes is 1 µg/mL (≈ 0.69 µM); in the data set with Streptococcus pneumoniae [7] it was 1 µg/mL (≈ 0.69 µM); in the data set with Staphylococcus aureus [9], 64 µg/mL (≈ 44.2 µM); in the data set on Enterococcus faecalis, 32 µg/mL (≈ 22.1 µM); with Enterococcus faecium, over 64 µg/mL; with Streptococcus pneumoniae [12], 2 µg/mL (≈ 1.38 µM). The MIC with Staphylococcus aureus [13] came out at 64 µg/mL (≈ 44.2 µM). Also, the PAE with Staphylococcus aureus [16] was 2 h.

As to `C/C(=N\NC(N)=O)c1ccc(Nc2nc(-c3ccccc3)cs2)cc1`, the MIC with Escherichia coli [1], with Staphylococcus aureus [2] and in the data set on Escherichia coli [3] was over 64 µg/mL each time.

Take `CC(=O)c1ccc(Nc2nc(-c3ccc(Cl)cc3)cs2)cc1`: the MIC with Escherichia coli [1], in the data set with Staphylococcus aureus [2] and in the data set with Escherichia coli [3] was over 64 µg/mL in each case.

Take `CC(=O)c1ccc(Nc2nc(-c3ccccc3)cs2)cc1`: the MIC with Escherichia coli [1], in the data set on Staphylococcus aureus [2] and in the data set with Escherichia coli [3] was over 64 µg/mL in each case.

With `C/C(=N\NC(N)=S)c1ccc(Nc2nc(-c3ccc(Br)cc3)cs2)cc1`, the MIC in the data set on Escherichia coli [1], in the data set with Staphylococcus aureus [2] and with Escherichia coli [3] was over 64 µg/mL throughout.

Compound `CO[C@H]1/C=C/O[C@@]2(C)Oc3c(C)c(O)c4c(O)c(c(/C=N/N5CCN(C)CC5)c(O)c4c3C2=O)NC(=O)/C(C)=C\C=C\[C@H](C)[C@H](O)[C@@H](C)[C@@H](O)[C@@H](C)[C@H](OC(C)=O)[C@@H]1C` [RIFAMPIN] had a kinetic solubility at 2 h in the data set “physchem” of 183 µM (≈ 151 µg/mL).

`C/C(=N\NC(N)=S)c1ccc(Nc2nc(-c3ccc(C)cc3)cs2)cc1`: the MIC in the data set with Escherichia coli [1], in the data set with Staphylococcus aureus [2] and in the data set on Escherichia coli [3] was over 64 µg/mL in each case.

Regarding `CN[C@@H]1[C@@H](O)[C@@H](O[C@@H]2[C@@H](O)[C@H](O[C@H]3O[C@H]([C@@H](C)N)CC[C@H]3N)[C@@H](N)C[C@H]2N)OC[C@]1(C)O` [GENTAMICIN C2], the MIC with Escherichia coli [1] and in the data set on Escherichia coli [3] was 0.25 µg/mL (≈ 0.539 µM) each time.

With `COc1ccc(-c2csc(Nc3ccc(/C(C)=N/NC(N)=O)cc3)n2)cc1`, the MIC in the data set with Escherichia coli [1], in the data set on Staphylococcus aureus [2] and with Escherichia coli [3] was over 64 µg/mL each time.

(Values after ChEMBL document CHEMBL4706519, “Evaluation of N-phenyl-2-aminothiazoles for treatment of multi-drug resistant and intracellular Staphylococcus aureus infections” (Eur J Med Chem, 2020).)
